Laboratory results: EP4570798A1, “AROMATIC HETEROCYCLIC CYCLOHEXYL AMINOALKYL PIPERIDINE DERIVATIVE, PREPARATION METHOD AND USE THEREOF” (Jiangsu NHWA Pharmaceutical Co., Ltd, priority 2022, dated 2024)
Several values for one entry are separate records, joined by “and”; a condition that tells them apart may be missing. Equal values may be shown once.

Key:
[1] = In vitro liver microsome stability, human; details: for CLint(liver): Human liver microsomes; for CLint scaled at 1 µM / half-life at 1 µM / microsomal CLint at 1 µM: human, liver microsomes, pH 7.4
Method: (§1) • (1) Buffer preparation: 73.21 g of dipotassium hydrogen phosphate trihydrate and 10.78 g of potassium dihydrogen phosphate were dissolved in 4000 mL of ultrapure water. The pH of the solution was adjusted to within 7.40 ± 0.10 using 10% phosphoric acid or 1 M potassium hydroxide, resulting in a final concentration of 100 mM. • (2) Solution preparation and dilution: Stock solutions of the test compounds at a concentration of 10 mM were prepared in dimethyl sulfoxide (DMSO) and stored at 4 °C, and they were diluted into 100 µM working solutions with pure acetonitrile when used. A stock solution of the control compound testosterone at a concentration of 10 mM was prepared in DMSO and stored at -20 °C, and it was diluted into a 400 µM working solution with pure acetonitrile when used. • (3) Termination solution preparation: The termination solution was acetonitrile containing the internal standard buspirone. The prepared termination solution was stored in a refrigerator at 2-8 °C. • (4) Liver microsome solution preparation: Microsomes from various species (CD-1 mouse, SD rat, and human) were diluted into a 20× working solution using 100 mM potassium phosphate buffer. The final concentration of the microsomes in the reaction system was 0.5 mg/mL. • (5) Reduced nicotinamide adenine dinucleotide phosphate (NADPH) regeneration system preparation: Appropriate amounts of nicotinamide adenine dinucleotide phosphate (NADP), glucose-6-phosphate (G6P), magnesium chloride (MgCl2), and glucose-6-phosphate dehydrogenase (G6PDH) were weighed to prepare stock solutions at concentrations of 65.33 mM, 330 mM, 300 mM, and 250 Units/mL, respectively. The four stock solutions described above were each added to an appropriate amount of buffer, and the mixture was mixed well by gently inverting up and down. […] Several incubation plates were prepared and named T0, T5, T10, T20, T40, T60, PB60, and NCF60, respectively. […] The NCF60 plate was incubated for 60 min with potassium phosphate buffer replacing the NADPH regeneration system solution. The PB60 plate was incubated for 60 min with potassium phosphate buffer replacing the liver microsomes. Samples under all conditions were prepared in triplicate.
(§2) 2 µL of the test compound or control compound and 100 µL of microsome working solution (containing 1 mg/mL liver microsome protein) were added to each of the T0, T5, T10, T20, T40, T60, and NCF60 plates, and 2 µL of the test compound and 100 µL of potassium phosphate buffer were added to the PB60 plate. The plates described above were then pre-incubated in a 37 °C water bath for about 5 min.
(§3) After the pre-incubation, 600 µL of the termination solution was first added to the T0 samples, followed by the addition of 98 µL of NADPH regeneration system working solution. The plate was sealed, shaken, and then allowed to wait for simultaneous processing with subsequent samples. Except for the NCF60 plate where 98 µL of potassium phosphate buffer was added to each sample well, 98 µL of NADPH regeneration system working solution was added to each sample well of the other incubation plates to initiate the reaction. In the reaction system, the final concentrations of the test compound and the control compound were 1 µM and 4 µM, respectively, the concentration of the liver microsomes was 0.5 mg/mL, and the final concentrations of DMSO and acetonitrile were 0.01% (v/v) and 0.99% (v/v), respectively.
(§4) After incubation for an appropriate time (such as 5, 10, 20, 40, and 60 min), 600 µL of the termination solution containing the internal standard was added to each test compound sample and control compound well to terminate the reaction. The plates were sealed, shaken well, and then centrifuged at 4000 ×g and 4 °C for 15 min.

hERG potassium channel = hERG potassium channel (Homo sapiens, UniProt Q12809); experiment: In vitro hERG experiment (whole-cell patch clamp); assay type: cell-based; details: for IC50: whole-cell patch clamp, tail current, room temperature
Method: Extracellular fluid: 140 mM NaCl, 3.5 mM KCl, 1 mM MgCl2, 2 mM CaCl2, 10 mM Glucose, 10 mM HEPES, and 1.25 mM NaH2PO4, with the pH adjusted to 7.4 by NaOH.
Under an inverted microscope, recording electrodes were controlled by a glass electrode micromanipulator (micromanipulation) to contact with the cell. A negative voltage was applied to form a GΩ seal. After forming the GΩ seal, a rapid capacitance compensation was given. Under the continuous negative voltage, the cell membrane was ruptured to establish a whole-cell recording mode. In the whole-cell recording mode, a slow capacitance compensation was given, and the values of membrane capacitance and series resistance were recorded.
Voltage stimulation scheme for cellular hERG potassium current: the cell membrane clamping voltage was -80 mV; the voltage was first elevated from -80 mV to +30 mV, held for 2.5 s, and rapidly changed to and held at -50 mV for 4 s, thus exciting the hERG channel tail current. Data were acquired every 10 s. Leak current detection was performed at -50 mV.
The coverslip with seeded cells was placed in the recording chamber of the inverted microscope. Negative control and test compounds flowed through the recording chamber in an ascending order of concentration by gravity perfusion to quickly act on the cells. During the recording, the extracellular fluid was continuously circulated by a vacuum pump. The current detected in a cell in the negative control was used as the background for the cell. Each compound concentration was allowed to act for 5 min or until the current was stabilized. All experiments were performed at room temperature.
The current of each compound concentration was first normalized according to (peak tail current compound)/(peak tail current vehicle), and then the corresponding inhibition rate was calculated according to (1 - (peak tail current compound)/(peak tail current vehicle)). Basic statistics were calculated for each concentration, including mean, standard deviation (SD), standard error (SE), and replicates (n). […] Curve fitting and calculation of IC50 were performed by GraphPad Prism 5.0 software.

[2] = In vitro liver microsome stability, SD rat; details: for CLint(liver): SD rat liver microsomes; for CLint scaled at 1 µM / half-life at 1 µM / microsomal CLint at 1 µM: SD, rat, liver microsomes, pH 7.4
Method: as §1, §2, §3, §4

[3] = In vitro liver microsome stability, CD-1 mouse; details: for CLint scaled at 1 µM / half-life at 1 µM / microsomal CLint at 1 µM: CD-1, mouse, liver microsomes, pH 7.4; for CLint(liver): CD-1 mouse liver microsomes
Method: as §1, §2, §3, §4

5-HT1A = target: T1, 5-HT1A (Homo sapiens, UniProt P08908); experiment: In vitro 5HT1A receptor function experiment (cAMP, forskolin-stimulated HEK293/5HT1A cells); assay type: cell-based; set-up: expressed in transfected cells; host or cells: HEK293; details: for EC50: forskolin 1 µM; for Emax: maximum activation rate
T1 sequence (P08908 1-422): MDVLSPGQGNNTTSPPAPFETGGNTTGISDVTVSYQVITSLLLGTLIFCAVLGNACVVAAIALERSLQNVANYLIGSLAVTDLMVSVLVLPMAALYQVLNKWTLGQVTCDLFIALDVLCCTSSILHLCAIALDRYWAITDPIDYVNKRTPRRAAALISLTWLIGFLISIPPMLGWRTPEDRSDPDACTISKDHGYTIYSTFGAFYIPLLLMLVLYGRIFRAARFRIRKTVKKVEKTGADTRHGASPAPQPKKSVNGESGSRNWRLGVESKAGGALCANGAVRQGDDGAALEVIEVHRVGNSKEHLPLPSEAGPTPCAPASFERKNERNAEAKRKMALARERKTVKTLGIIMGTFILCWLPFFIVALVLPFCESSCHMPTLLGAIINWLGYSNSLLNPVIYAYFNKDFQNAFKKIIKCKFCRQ
Method: 1.1.1 Cell information: HEK293/5HT1A: a stably transfected cell strain HEK293/5HT1A constructed by adopting 5HT1A receptor lentivirus to infect HEK293; growth culture medium: DMEM, 10% FBS, and 0.6 µg/mL puro; and cryopreservation culture medium: 70% culture medium, 20% FBS, and 10% DMSO.

[4] = test system: tacrine-induced jaw tremors in rats; experiment: Tacrine-induced jaw tremor behavior in rats; assay type: in vivo, Sprague Dawley rats; details: for Inhibition of tacrine-induced jaw tremors in rats: compared to the model group; for Minimum effective dose: tacrine-induced jaw tremor in rats, compared with rotigotine
Method: Test compounds: The free bases of Examples 28, 32, and 33 in the present invention, which were self-prepared.
Positive control compound: Rotigotine.
Molding drug: Tacrine, SIGMA, A3773-1G.
Vehicle: Normal saline, Cisen Pharmaceutical Co., Ltd., 2111060723.
Sprague Dawley rats, male, 10/group, Shanghai Slac Laboratory Animal Co., Ltd.
Drug preparation: The test compound was taken, added to the vehicle, and subjected to ultrasonication.
Administration route and method: Administration was performed by intraperitoneal injection.
Administration frequency and duration: single administration.
The rats were stratified according to body weight and then randomly divided into a model group, an administration group, and a control group. The rats were acclimatized for three days before the experiment. On the day of the experiment, the vehicle or drug was first injected intraperitoneally, followed by an intraperitoneal injection of tacrine at a dose of 5 mg/kg (body weight) after 60 min. After administration, the rats were placed in a transparent observation box, and the jaw tremor counting was started 10 min later. The continuous counting duration was 5 min, and the jaw tremor frequency in the rats within 5 min was recorded.
The experimental data were expressed as x ± SEM. Inhibition rate (%) = 100% × (jaw tremor frequency in the rats of the model group - jaw tremor frequency in the rats of the administration group)/jaw tremor frequency in the rats of the model group, where *: p < 0.05, **: p < 0.01, and ***: p < 0.001 vs vehicle.

Dopamine D3 receptor = target: T2, Dopamine D3 receptor (Homo sapiens, UniProt P35462); experiment: In vitro dopamine D3 receptor function experiment (CHO-K1/D3/CRE reporter, chemiluminescence); assay type: cell-based; details: for EC50: forskolin 0.4 µM; for Emax: maximum activation rate
T2 construct: expressed in transfected cells; host or cells: CHO-K1
Method: 3.1.1 Cell information: CHO-K1/D3/CRE constructed by referring to the method in Example 5 of CN114369578A.
The first day: cell plating • (1) The cultured cells were digested with trypsin, and after the digestion was terminated with culture medium, the cell suspension was transferred to a centrifuge tube and centrifuged at 750 rpm for 5 min. • (2) The supernatant was discarded, and the pellet was resuspended in an appropriate amount of plating medium.
The following day: experimental detection • (1) The test compounds were diluted to 0.2 mM with DMSO, and the reference compound dopamine was diluted to 0.02 mM. • (2) Compound dilution (4-fold dilution at 8 concentration points) was performed using Bravo, with the starting concentrations of the test compounds and the reference compound being 5 µM and 500 nM, respectively. […] The program selected was an ultrasensitive chemiluminescence detection program.

[5] = 1 mg/kg, 3 mg/kg, and 10 mg/kg, intraperitoneal, single administration, free base

T2 sequence (P35462 whole entry, species assumed): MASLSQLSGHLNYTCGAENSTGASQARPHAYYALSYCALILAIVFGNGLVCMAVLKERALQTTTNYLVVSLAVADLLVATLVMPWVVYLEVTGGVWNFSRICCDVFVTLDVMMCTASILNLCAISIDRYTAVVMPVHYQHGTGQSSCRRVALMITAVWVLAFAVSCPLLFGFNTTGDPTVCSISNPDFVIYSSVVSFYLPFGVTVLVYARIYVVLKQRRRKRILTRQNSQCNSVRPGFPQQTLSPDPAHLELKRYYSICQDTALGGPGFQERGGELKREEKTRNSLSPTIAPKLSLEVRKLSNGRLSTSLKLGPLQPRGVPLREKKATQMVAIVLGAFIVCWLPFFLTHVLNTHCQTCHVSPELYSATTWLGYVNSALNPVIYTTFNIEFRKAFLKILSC
hERG potassium channel, sequence (Q12809 whole entry): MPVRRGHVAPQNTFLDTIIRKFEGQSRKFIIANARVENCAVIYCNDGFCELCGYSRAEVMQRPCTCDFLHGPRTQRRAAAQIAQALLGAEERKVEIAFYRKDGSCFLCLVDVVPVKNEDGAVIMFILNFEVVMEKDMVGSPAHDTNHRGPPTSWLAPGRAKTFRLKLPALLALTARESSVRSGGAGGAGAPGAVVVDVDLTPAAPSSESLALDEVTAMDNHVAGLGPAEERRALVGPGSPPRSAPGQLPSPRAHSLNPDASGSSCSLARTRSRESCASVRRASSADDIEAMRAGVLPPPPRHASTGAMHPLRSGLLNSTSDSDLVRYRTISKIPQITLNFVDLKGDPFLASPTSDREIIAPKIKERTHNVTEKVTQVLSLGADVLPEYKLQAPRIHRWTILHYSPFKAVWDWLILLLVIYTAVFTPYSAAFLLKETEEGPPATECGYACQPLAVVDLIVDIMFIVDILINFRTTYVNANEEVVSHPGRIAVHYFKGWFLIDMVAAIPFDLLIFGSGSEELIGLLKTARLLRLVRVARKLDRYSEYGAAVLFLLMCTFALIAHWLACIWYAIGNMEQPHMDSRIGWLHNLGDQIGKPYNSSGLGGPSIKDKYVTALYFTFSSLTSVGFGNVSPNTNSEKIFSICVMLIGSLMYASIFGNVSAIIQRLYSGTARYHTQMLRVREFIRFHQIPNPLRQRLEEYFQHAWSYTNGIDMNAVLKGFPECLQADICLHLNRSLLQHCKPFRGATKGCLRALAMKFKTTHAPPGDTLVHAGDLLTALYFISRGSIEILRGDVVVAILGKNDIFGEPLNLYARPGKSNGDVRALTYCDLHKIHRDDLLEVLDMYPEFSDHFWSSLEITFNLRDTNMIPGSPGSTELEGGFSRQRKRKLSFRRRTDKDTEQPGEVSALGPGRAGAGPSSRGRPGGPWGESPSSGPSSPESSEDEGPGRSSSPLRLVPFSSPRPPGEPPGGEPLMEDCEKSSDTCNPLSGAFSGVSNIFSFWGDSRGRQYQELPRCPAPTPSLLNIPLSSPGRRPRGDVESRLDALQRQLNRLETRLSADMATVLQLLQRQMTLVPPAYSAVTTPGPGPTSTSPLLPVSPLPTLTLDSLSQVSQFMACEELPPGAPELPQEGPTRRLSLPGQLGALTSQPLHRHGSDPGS

SMILES | CLint(liver) [1] [mL/min/K g] | CLint scaled at 1 µM [1] [mL/min/kg] | half-life at 1 µM [1] [min] | microsomal CLint at 1 µM [1] [µL/min/mg] | CLint(liver) [2] [mL/min/K g] | CLint scaled at 1 µM [2] [mL/min/kg] | half-life at 1 µM [2] [min] | microsomal CLint at 1 µM [2] [µL/min/mg] | CLint scaled at 1 µM [3] [mL/min/kg] | half-life at 1 µM [3] [min] | microsomal CLint at 1 µM [3] [µL/min/mg] | CLint(liver) [3] [mL/min/K g] | EC50 (5-HT1A) [nM] | Emax (5-HT1A) [%] | EC50 (Dopamine D3 receptor) [nM] | Emax (Dopamine D3 receptor) [%] | other results
CCCN(CC1CCN(C(=O)c2cnn(C)c2)CC1)[C@H]1CCc2nc(N)sc2C1 [Example 28, (S)-(4-(((2-Amino-4,5,6,7-tetrahydrobenzo[d]thiazol-6-yl)(propyl)amino)methyl)piperidin-1-yl)(1-methyl-1H-pyrazol-4-yl)methanone] | 1.0 | < 8.9 | 1180 | 1.1 | 2.7 | < 23.7 | 891 | 2.8 | < 38.6 | 394 | 13.9 | 13.4 | 122 | 103 |  |  | IC50 (hERG potassium channel): 20 µM and 23.3 µM; Inhibition of tacrine-induced jaw tremors in rats [4, 5]: significantly inhibited; Minimum effective dose [4]: lower than that of the positive control drug
CCCN(CCc1cccs1)[C@H]1CCc2c(O)cccc2C1 [rotigotine, Rotigotine, reference compound] |  |  |  |  |  |  |  |  |  |  |  |  |  |  |  |  | Inhibition of tacrine-induced jaw tremors in rats ([4]; 10 mg/kg, positive control): significantly inhibited
CCCN(CC1CCN(C(=O)N(C)C)CC1)[C@H]1CCc2nc(N)sc2C1 [Example 32, (S)-4-(((2-Amino-4,5,6,7-tetrahydrobenzo[d]thiazol-6-yl)(propyl)amino)methyl)-N,N-dimethylpiperidine-1-carboxamide] | 10.3 | 8.9 to 48.3 |  | 11.5 | 38.5 | 23.7 to 129 | 64.8 | 21.4 | 38.6 to 210 |  | 11.5 | 45.5 | 25.7 | 102 | 1.3 | 120 | hERG inhibition: functional activity lower than that of the pharmacodynamic target (hERG potassium channel; hERG IC50 versus activity at pharmacodynamic target): ≥ 1000 fold; IC50 (hERG potassium channel): 20 µM and 17.8 µM; Inhibition of tacrine-induced jaw tremors in rats [4, 5]: significantly inhibited; Minimum effective dose [4]: lower than that of the positive control drug
CCCN(CC1CCN(c2cccc3sccc23)CC1)[C@@H]1CCc2nc(N)sc2C1 [Example 11, (R)-N^6-((1-(Benzo[b]thiophen-4-yl)piperidin-4-yl)methyl)-N^6-propyl-4,5,6,7-tetrahydrobenzo[d]thiazole-2,6-diamine] |  |  |  |  |  |  |  |  |  |  |  |  | 130 | 92.6 | 3.3 | 109 | 
CCCN(CC1CCN(C(=O)C2CCCCC2)CC1)[C@H]1CCc2nc(N)sc2C1 [Example 29, (S)-(4-(((2-Amino-4,5,6,7-tetrahydrobenzo[d]thiazol-6-yl)(propyl)amino)methyl)piperidin-1-yl)(cyclohexyl)methanone] |  |  |  |  |  |  |  |  |  |  |  |  | 107 | 118 | 2.8 | 111 | 
CCCN(CC1CCN(C(=O)c2ccccc2)CC1)[C@H]1CCc2nc(N)sc2C1 [Example 17, (S)-(4-(((2-Amino-4,5,6,7-tetrahydrobenzo[d]thiazol-6-yl)(propyl)amino)methyl)piperidin-1-yl)(phenyl)methanone] | 27.7 | 8.9 to 48.3 | 45 | 30.8 | 76.9 | 23.7 to 129 | 32.4 | 42.7 | 38.6 to 210 | 79.8 | 17.4 | 68.8 | 51.6 | 114 | 1.1 | 109 | 
CCCN(CC1CCN(c2cccc3sccc23)CC1)[C@H]1CCc2nc(N)sc2C1 [Example 9, (S)-N^6-((1-(Benzo[b]thiophen-4-yl)piperidin-4-yl)methyl)-N^6-propyl-4,5,6,7-tetrahydrobenzo[d]thiazole-2,6-diamine] | 33.4 | 8.9 to 48.3 | 37.4 | 37.1 | 89.1 | 23.7 to 129 | 28 | 49.5 | 38.6 to 210 | 28.2 | 49.1 | 194.5 | 30.2 | 101 | 2.1 | 111 | 
CCCN(CC1CCN(C(=O)c2ccco2)CC1)[C@H]1CCc2nc(N)sc2C1 [Example 25, (S)-(4-(((2-Amino-4,5,6,7-tetrahydrobenzo[d]thiazol-6-yl)(propyl)amino)methyl)piperidin-1-yl)(furan-2-yl)methanone] |  |  |  |  |  |  |  |  |  |  |  |  | 41.9 | 112 | 1.3 | 106 | 
